Substitutions are numbered along the chain they refer to.
What was measured:
Conditions in all cases: pH 9.5; 16 °C
Aurora kinase A [1] = target: T1, Aurora kinase A (Homo sapiens, UniProt O14965); test: Aurora A Inhibition Assay
T1 sequence (O14965 whole entry): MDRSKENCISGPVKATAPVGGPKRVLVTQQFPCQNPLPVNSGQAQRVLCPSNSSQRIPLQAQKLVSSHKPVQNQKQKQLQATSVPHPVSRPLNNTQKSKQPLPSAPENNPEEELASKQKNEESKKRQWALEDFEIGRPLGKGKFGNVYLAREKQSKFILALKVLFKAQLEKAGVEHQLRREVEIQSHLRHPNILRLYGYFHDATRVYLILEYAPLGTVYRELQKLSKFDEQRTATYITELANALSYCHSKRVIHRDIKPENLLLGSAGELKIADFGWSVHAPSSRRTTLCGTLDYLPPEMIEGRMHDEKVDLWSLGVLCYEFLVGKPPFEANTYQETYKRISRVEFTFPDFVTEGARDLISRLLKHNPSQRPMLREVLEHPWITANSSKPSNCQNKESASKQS
Source text: (§1) Selection of DNA-encoded libraries (DELs) which are covalent attachment of encoding double stranded DNA to small-molecule created using a combination of enzymatic and chemical synthesis in a split-and-pool format against Aurora A kinase

[2] = target: Mitogen-activated protein kinase 14 (Homo sapiens, UniProt Q16539); test: MAPK p38 Inhibition Assay
Source text: Selection of DNA-encoded libraries (DELs), which are covalent attachment of encoding double stranded DNA to small-molecule created using a combination of enzymatic and chemical synthesis in a split-and-pool format against p38 mitogen-activated protein kinase

Aurora kinase A [3] = target: T2, Aurora kinase A (Homo sapiens, UniProt O14965); test: Aurora A Inhibition Assay; remark: listed apart in the source
T2 sequence (O14965 whole entry): T1 sequence (O14965 whole entry) with I57V
Source text: as §1

Mitogen-activated protein kinase 14, sequence (Q16539 whole entry): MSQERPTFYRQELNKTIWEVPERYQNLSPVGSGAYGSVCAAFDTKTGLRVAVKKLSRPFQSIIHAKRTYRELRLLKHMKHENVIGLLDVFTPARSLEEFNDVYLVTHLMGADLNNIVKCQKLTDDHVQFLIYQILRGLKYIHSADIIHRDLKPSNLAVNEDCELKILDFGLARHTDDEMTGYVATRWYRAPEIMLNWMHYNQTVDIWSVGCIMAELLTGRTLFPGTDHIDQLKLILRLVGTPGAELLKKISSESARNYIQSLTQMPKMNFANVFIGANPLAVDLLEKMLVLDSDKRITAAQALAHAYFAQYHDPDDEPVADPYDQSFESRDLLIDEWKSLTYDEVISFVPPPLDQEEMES

SMILES | IC50 (Aurora kinase A [1]) [µM] | also measured
COc1ccccc1CCNc1nc(NC(Cc2c[nH]c3ncccc23)C(N)=O)nc(N(C)[C@@H](C)c2ccccc2)n1 (stereo partly drawn) [2-(4-(2-Methoxyphenethylamino)-6-(methyl((S)-1-phenylethyl)amino)-1,3,5-triazin-2-ylamino)-3-(1H-pyrrolo[2,3-b]pyridin-3-yl)propanamide] | 6.3 | 
COc1ccccc1CCNc1nc(Nc2ccc3ncccc3c2)nc(NC(Cc2c[nH]c3ncccc23)C(N)=O)n1 (stereo unspecified) [2-(4-(2-Methoxyphenethylamino)-6-(quinolin-6-ylamino)-1,3,5-triazin-2-ylamino)-3-(1H-pyrrolo[2,3-b]pyridin-3-yl)propanamide] | 3.7 | 
CCCCN(C)c1nc(NCCc2ccccc2OC)nc(NC(Cc2c[nH]c3ncccc23)C(N)=O)n1 (stereo unspecified) [2-(4-(Butyl(methyl)amino)-6-(2-methoxyphenethylamino)-1,3,5-triazin-2-ylamino)-3-(1H-pyrrolo[2,3-b]pyridin-3-yl)propanamide] | 3.8 | 
CNC(=O)[C@H](Cc1ccc2c(c1)COC(C)(C)O2)Nc1nc(NCC(C)C)nc(-n2cnc3cc(C(=O)N4CCCc5ccccc54)ccc32)n1 [(S)-3-(2,2-Dimethyl-4H-benzo[d][1,3]dioxin-6-yl)-2-(4-(isobutylamino)-6-(5-(1,2,3,4-tetrahydroquinoline-1-carbonyl)-1H-benzo[d]imidazol-1-yl)-1,3,5-triazin-2-ylamino)-N-methylpropanamide] |  | EC50 [2]: 0.25 µM
CNc1nc(NCCc2ccccc2OC)nc(Nc2ccc3ncccc3c2)n1 [DEL-A, 12] |  | IC50 (Aurora kinase A [3]): 5.1 µM
CCCCN(C)c1nc(NCCc2ccccc2OC)nc(NCCc2c[nH]c3ncccc23)n1 [N2-(2-(1H-Pyrrolo[2,3-b]pyridin-3-yl)ethyl)-N4-butyl-N6-(2-methoxyphenethyl)-N4-methyl-1,3,5-triazine-2,4,6-triamine] | 1.2 | 

— BindingDB's records for doi:10.1038/nchembio.211 (Praecis Pharmaceuticals, 2009)
